≈ marks a conversion by molar mass, not a printed value. Where two headings read alike, the source gives them in different places.
Columns and labels:
[1] = Example 4: performance and water miscibility in presence of sodium percarbonate, undissolved TAED at T=0 and T=6 months; type: physicochemical
Description: The TAED:Sodium percarbonate ratio used for the study was 1:2.5 w/w. […] This 100 mL solution was either used as it was or it was further diluted to with 900 mL water to make a 1 L sample.

[2] = cited from earlier work
[3] = Example 3: performance and water miscibility in presence of sodium percarbonate, weight of remaining material
Description: The experiment was carried out to check the performance and water miscibility of TAED in presence of sodium percarbonate. 1 gram of TAED with 2.5 gram of sodium percarbonate was added 1 litre water and stirred at 500 rpm using overhead stirrer. In Experiment set up the amount of water used for the study was 1 litre.

## CC(=O)N(CCN(C(C)=O)C(C)=O)C(C)=O [TAED (Commercially available), Tetraacetylethylenediamine]
[1]; 1 g TAED, 1 L, 1 min, T = 6 months (40° C., 75% relative humidity)
  Undissolved TAED: 90 mg
[1]; 1 g TAED, 1 L, 4 min, T = 0
  Undissolved TAED: 60 mg
[1]; 1 g TAED, 1 L, 4 min, T = 6 months (40° C., 75% relative humidity)
  Undissolved TAED: 60 mg
[1]; 1 g TAED, 100 mL diluted to 1 L, 1 min, T = 0
  Undissolved TAED: 90 mg
[1]; 1 g TAED, 100 mL water, stirring 1 min, T = 6 months (40° C., 75% relative humidity)
  Undissolved TAED: 150 mg
[1]; 1 g TAED, 100 mL water, stirring 4 min, T = 0
  Undissolved TAED: 100 mg
[1]; 1 g TAED, 100 mL water, stirring 4 min, T = 6 months (40° C., 75% relative humidity)
  Undissolved TAED: 100 mg
[1]; 1 g TAED, sodium percarbonate 1:2.5 w/w, 100 mL water, stirring 1 min, T = 0
  Undissolved TAED: 150 mg
[1]; 3 gram TAED, 1 litre, stirring 1 min, T = 0
  Undissolved TAED: 1.8 gram
[1]; 3 gram TAED, 1 litre, stirring 1 min, T = 6 month
  Undissolved TAED: 1.8 gram
[1]; 3 gram TAED, 1 litre, stirring 4 min, T = 0
  Undissolved TAED: 1.2 gram
[1]; 3 gram TAED, 1 litre, stirring 4 min, T = 6 month
  Undissolved TAED: 1.2 gram
[1]; 3 gram TAED, 100 ml water, stirring 1 min, T = 0
  Undissolved TAED: 2 gram
[1]; 3 gram TAED, 100 ml water, stirring 1 min, T = 6 month
  Undissolved TAED: 2 gram
[1]; 3 gram TAED, 100 ml water, stirring 4 min, T = 0
  Undissolved TAED: 1.8 gram
[1]; 3 gram TAED, 100 ml water, stirring 4 min, T = 6 month
  Undissolved TAED: 1.8 gram
[2]; 20° C.
  solubility: 200 µg/mL (≈ 876 µM)
[2]
  solubility: around 200 mg/L
[3]; 100 ml water
  amount remained after 5 min: 800 mg
[3]; 250 ml water
  amount remained after 5 min: 750 mg
[3]; 500 ml water
  amount remained after 5 min: 690 mg
